Test [1] deals with T1, Her3 (Homo sapiens, UniProt P21860). As to the kind of experiment: Her3 protein degradation by Western blot. Conditions: PC9-GR4 or Ovacar 8 cell lines, 2 μM, 4 hour and 8 hour. More on the design: endogenous in cells; host or cells: PC9-GR4; Ovacar 8; key: (+): Her3 protein was degraded; (−): Her3 protein was not degraded. The class given is cell-based. The method, then:
Cells are seeded at the desired density the day before treatment starts with bifunctional compounds of the application at various concentration. After 4 to 12 hrs, cells are washed with buffer and lysed. The lysates are centrifuged and the supernatant is collected. Protein concentrations are measured using a protein assay kit, such as the BCA protein assay kit, Pierce, catalog number 23225) and normalized. Samples are run on a SDS-PAGE gel, and transferred to a PVDF membrane. The PVDF membrane is probed with the appropriate antibody.
Her3 protein degradation was assessed by Western blots after treatment of PC9-GR4 cell lines or Ovacar 8 cell lines with 2 μM of representative compounds for 4 hour and 8 hour.
Cells were seeded at a density of […] per 6 cm plate the day before treatment started with representative compounds of the application at the indicated concentration. After 4 to 12 hours, cells were washed with phosphate-buffered saline. Lysis buffer included 50 mM Tris-HCl, 150 mM NaCl, 1% NP-40, and 5 mM EDTA, pH 7.4+/−0.2, Roche PhosSTOP phosphatase inhibitor cocktail tablets and Roche Complete Protease inhibitor cocktail tablets. Cell lysis was accomplished by the addition of lysis buffer for 5-10 minutes on ice. Lysates were centrifuged in a microcentrifuge at 14,000 r.p.m. for 15 minutes at 4° C. and the supernatant was collected. Protein concentrations were measured using BCA protein assay kit (Pierce, catalog number 23225) and normalized. Samples were run on a 4%-12% SDS-PAGE gel at 120 V. After transfer, the PVDF membrane was probed with anti-Her3 antibody, Santa Cruz, catalog number sc-285 at 1:1000 dilution.
Target sequence in this assay (P21860 20-1342): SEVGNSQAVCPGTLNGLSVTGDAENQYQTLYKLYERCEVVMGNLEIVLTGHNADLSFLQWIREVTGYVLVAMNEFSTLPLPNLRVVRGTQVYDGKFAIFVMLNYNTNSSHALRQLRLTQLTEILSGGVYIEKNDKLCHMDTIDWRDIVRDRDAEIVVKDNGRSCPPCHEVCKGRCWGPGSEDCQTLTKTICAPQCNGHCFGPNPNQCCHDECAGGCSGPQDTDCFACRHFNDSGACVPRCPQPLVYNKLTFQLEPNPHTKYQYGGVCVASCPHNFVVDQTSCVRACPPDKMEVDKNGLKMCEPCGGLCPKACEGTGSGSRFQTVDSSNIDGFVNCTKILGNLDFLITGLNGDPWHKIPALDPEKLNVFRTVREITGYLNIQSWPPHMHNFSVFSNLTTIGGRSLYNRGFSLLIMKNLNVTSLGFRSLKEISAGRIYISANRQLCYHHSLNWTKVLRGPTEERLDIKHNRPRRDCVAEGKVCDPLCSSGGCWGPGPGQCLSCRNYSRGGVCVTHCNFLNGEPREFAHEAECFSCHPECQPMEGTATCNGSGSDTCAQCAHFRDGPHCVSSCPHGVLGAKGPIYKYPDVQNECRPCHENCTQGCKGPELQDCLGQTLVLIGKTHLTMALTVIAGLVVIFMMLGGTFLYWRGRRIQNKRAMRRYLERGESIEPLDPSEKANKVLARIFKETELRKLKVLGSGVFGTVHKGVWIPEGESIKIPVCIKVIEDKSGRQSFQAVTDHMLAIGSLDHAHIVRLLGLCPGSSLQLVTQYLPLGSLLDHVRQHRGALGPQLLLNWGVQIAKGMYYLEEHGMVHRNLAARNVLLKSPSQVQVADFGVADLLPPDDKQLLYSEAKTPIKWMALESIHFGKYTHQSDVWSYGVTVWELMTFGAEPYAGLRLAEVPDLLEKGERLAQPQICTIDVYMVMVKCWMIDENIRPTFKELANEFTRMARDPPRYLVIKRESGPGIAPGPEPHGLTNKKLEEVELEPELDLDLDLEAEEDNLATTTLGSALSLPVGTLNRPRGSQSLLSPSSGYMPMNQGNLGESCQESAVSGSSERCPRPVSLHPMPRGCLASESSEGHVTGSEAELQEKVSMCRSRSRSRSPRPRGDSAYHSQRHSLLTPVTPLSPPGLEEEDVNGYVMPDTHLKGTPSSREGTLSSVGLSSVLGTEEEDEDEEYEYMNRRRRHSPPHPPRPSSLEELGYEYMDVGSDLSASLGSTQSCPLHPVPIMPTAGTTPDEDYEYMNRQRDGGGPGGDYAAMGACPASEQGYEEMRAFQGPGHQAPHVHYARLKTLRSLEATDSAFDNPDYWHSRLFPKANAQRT
(In general: In western blotting, separated proteins are transferred to a membrane and probed.)

Another test has as its system Ovacar 8. Put plainly: Anti-proliferation MTS assay, Ovacar 8. It is filed as cell-based. Conditions: 72 h, Ovacar 8 cells, 3 days, read-out: Cell lines (EC50, μM) Ovacar 8. The protocol:
(§1) Cells are seeded and incubated for 3 d after bifunctional compounds of the application are added. Cell viability is measured via MTS Assay. This assay uses a colorimetric method to determine the number of viable cells based on the bioreduction of MTS by cells to a formazan product that is soluble in cell culture medium and can be detected spectrophotometrically. In a typical experiment, the supernatant is removed and replaced by 100 μl of RPMI media supplemented with MTS reagent and PMS. The plates are measured with Perkin Elmer EnVision after reaching an optical density (OD) of 1.0-2.0 at a wavelength of 490 nm. The cell numbers are normalized compared to DMSO control, and the EC50 values are calculated using GraphPad Prism.
(§2) Five cell lines, PC9-GR4, 826-GR6, Ovacar 8, A549, and Ovacar 5 were grown and treated with representative compounds Viability of the cells after the treatment was assessed by MTS assay.
(§3) The anti-proliferation assay was carried out using 96-well clear bottom plates. […] Cell viability was measured via MTS Assay. This assay uses a colorimetric method to determine the number of viable cells based on the bioreduction of MTS by cells to a formazan product that is soluble in cell culture medium and can be detected spectrophotometrically. […] The plates were measured with Perkin Elmer EnVision after reaching an optical density (OD) of 1.0-2.0 at a wavelength of 490 nm. […]
In general terms: Tetrazolium dyes change colour on reduction, which living cells bring about.

For test [2], the target named is T1, Her3. As to the kind of experiment: LanthaScreen Eu kinase binding assay. Conditions: read-out: Binding Affinities (IC50). On the set-up: purchased Life Technologies. The protocol:
Lantha screening is performed by following the method reported in Nature Chemical Biology, 10, 1006-1012 (2014).
Binding affinities (IC50) of representative compounds were measured by the Life Technologies LanthaScreen Eu kinase binding assay, which was previously described (Xie T. et al., Nat. Chem. Biol. 2014, 10, 1006-1012).
Lantha screening was performed by following the method reported in Nature Chemical Biology, 10, 1006-1012 (2014).
Target sequence in this assay (P21860 20-1342, species assumed): as the sequence (P21860 20-1342) above

The test system of another test is PC9-GR4. Put plainly: Anti-proliferation MTS assay, PC9-GR4. Conditions: 72 h, PC9-GR4 cells, 3 days, read-out: Cell lines (EC50, μM) PC9-GR4. The class given is cell-based. The protocol: as §1, §2, §3
The test system of another test is 826-GR6. Put plainly: Anti-proliferation MTS assay, 826-GR6. It is filed as cell-based. Conditions: 72 h, 826-GR6 cells, 3 days, read-out: Cell lines (EC50, μM) 826-GR6. The method, then:
as §1, §2, §3

A further test concerns A549. As to the kind of experiment: Anti-proliferation MTS assay, A549. It is filed as cell-based. Conditions: Homo sapiens, 72 h, A549 cells, 3 days, read-out: Cell lines (EC50, μM) A549. The protocol: as §1, §2, §3
The next test has as its system Ovacar 5. Put plainly: Anti-proliferation MTS assay, Ovacar 5. It is filed as cell-based. Conditions: 72 h, Ovacar 5 cells, 3 days, read-out: Cell lines (EC50, μM) Ovacar 5. The method, then:
as §1, §2, §3

pIC50: −log10 of the molar value.

This is an account of results in US20200216454A1, “BIFUNCTIONAL MOLECULES FOR HER3 DEGRADATION AND METHODS OF USE” (Dana-Farber Cancer Institute, Inc., priority 2016, published 2020).

For orientation: EC50 means the concentration at which the effect is half-maximal. The pIC50 is the IC50 on a negative log10 scale, so that one unit is a factor of ten.

`C=CC(=O)Nc1cc(-c2nn(C3CCN(CCOCCOCCOCCC(=O)N[C@@H](C(=O)N4C[C@@H](O)C[C@@H]4C(=O)NCc4ccc(-c5scnc5C)cc4)C(C)(C)C)CC3)c3ncnc(N)c23)ccc1Oc1ccccc1` [Compound PP1]: the “Her3 Degradation” value at Her3 [1] is recorded as “−”.
Take `C=CC(=O)Nc1cc(-c2nn(C3CCN(CC(=O)NCCCCCCCCNC(=O)COc4cccc5c4C(=O)N(C4CCC(=O)NC4=O)C5=O)CC3)c3ncnc(N)c23)ccc1Oc1ccccc1` (stereo not drawn) [Compound PP4]: the EC50 in the test on Ovacar 8 is 5 to 15 µM. On Her3 [1], the “Her3 Degradation” value was “+”.
As to `Nc1ncnc2c1c(-c1ccc(Oc3ccccc3)c([N+](=O)[O-])c1)nn2C1CCN(CC(=O)NCCOCCOCCOCCNC(=O)COc2cccc3c2C(=O)N(C2CCC(=O)NC2=O)C3=O)CC1` (stereo not drawn) [Compound PP6], the pIC50 at Her3 [2] was 7.00 to 8.00. Besides, the “Her3 Degradation” value at Her3 [1] is reported as “−”.
`Cc1ncsc1-c1ccc(CNC(=O)[C@@H]2C[C@@H](O)CN2C(=O)[C@@H](NC(=O)CCOCCOCCOCCN2CCC(n3nc(-c4ccc(Oc5ccccc5)c([N+](=O)[O-])c4)c4c(N)ncnc43)CC2)C(C)(C)C)cc1` [Compound PP8]: in the test on PC9-GR4, the EC50 was over 15 µM. In addition, the pIC50 at Her3 [2] is under 7.00. Moreover, the “Her3 Degradation” value at Her3 [1] is reported as “+”.
In the case of `Nc1ncnc2c1c(-c1ccc(Oc3ccccc3)c([N+](=O)[O-])c1)nn2C1CCN(CC(=O)NCCCCNC(=O)COc2cccc3c2C(=O)N(C2CCC(=O)NC2=O)C3=O)CC1` (stereo not drawn) [Compound PP7], the pIC50 on Her3 [2] is 7.00 to 8.00. For the same molecule, the “Her3 Degradation” value on Her3 [1] is “−”.
As for `C=CC(=O)Nc1cc(-c2nn(C3CCN(CC(=O)NCCCOCCOCCOCCCNC(=O)COc4cccc5c4C(=O)N(C4CCC(=O)NC4=O)C5=O)CC3)c3ncnc(N)c23)ccc1Oc1ccccc1` (stereo not drawn) [Compound PP5], at Her3 [1], the “Her3 Degradation” value was “−”.
With `C=CC(=O)Nc1cc(-c2nn(C3CCN(CC(=O)N[C@@H](C(=O)N4C[C@@H](O)C[C@@H]4C(=O)NCc4ccc(-c5scnc5C)cc4)C(C)(C)C)CC3)c3ncnc(N)c23)ccc1Oc1ccccc1` [Compound PP2], the EC50 with PC9-GR4 was 5 to 15 µM; in the test with 826-GR6 it was 5 to 15 µM; with Ovacar 8, under 5 µM; in the test with A549, 5 to 15 µM; in the test with Ovacar 5, 5 to 15 µM. Besides, the “Her3 Degradation” value on Her3 [1] was “+”.
Take `C=CC(=O)Nc1cc(-c2nn(C3CCN(CC(=O)NCCCCNC(=O)COc4cccc5c4C(=O)N(C4CCC(=O)NC4=O)C5=O)CC3)c3ncnc(N)c23)ccc1Oc1ccccc1` (stereo not drawn) [Compound PP3]: the “Her3 Degradation” value at Her3 [1] is “+”.
